Measured values published in US8765677B2 (priority 2009, dated 2014).
“And” between values parts separate entries of the source, which are not always exact repeats. Identical values can stand only once. Where a SMILES comes first, the peptide text is derived from it.

How the values were obtained:
[1] = target: recombinant N-type (Cav2.2) VGCCs α1B-b/α2δ1/β3 (Rattus norvegicus, UniProt Q02294); assay: cell-based; assay type: cell-based
[2] = test system: recombinant N-type (Cav2.2) VGCCs α1B-b/β3; assay type: cell-based, rat
[3] = target: recombinant Cav1.2 α1C (L-type) channels (α/α2δ1/β3) (Oryctolagus cuniculus, UniProt P15381); assay type: cell-based, rabbit
[4] = target: recombinant Cav1.3 α1D (L-type) channels (α/α2δ1/β3) (Rattus norvegicus, UniProt P27732); assay type: cell-based
Chain of recombinant Cav1.3 α1D (L-type) channels (α/α2δ1/β3) (P27732 whole entry, looked up): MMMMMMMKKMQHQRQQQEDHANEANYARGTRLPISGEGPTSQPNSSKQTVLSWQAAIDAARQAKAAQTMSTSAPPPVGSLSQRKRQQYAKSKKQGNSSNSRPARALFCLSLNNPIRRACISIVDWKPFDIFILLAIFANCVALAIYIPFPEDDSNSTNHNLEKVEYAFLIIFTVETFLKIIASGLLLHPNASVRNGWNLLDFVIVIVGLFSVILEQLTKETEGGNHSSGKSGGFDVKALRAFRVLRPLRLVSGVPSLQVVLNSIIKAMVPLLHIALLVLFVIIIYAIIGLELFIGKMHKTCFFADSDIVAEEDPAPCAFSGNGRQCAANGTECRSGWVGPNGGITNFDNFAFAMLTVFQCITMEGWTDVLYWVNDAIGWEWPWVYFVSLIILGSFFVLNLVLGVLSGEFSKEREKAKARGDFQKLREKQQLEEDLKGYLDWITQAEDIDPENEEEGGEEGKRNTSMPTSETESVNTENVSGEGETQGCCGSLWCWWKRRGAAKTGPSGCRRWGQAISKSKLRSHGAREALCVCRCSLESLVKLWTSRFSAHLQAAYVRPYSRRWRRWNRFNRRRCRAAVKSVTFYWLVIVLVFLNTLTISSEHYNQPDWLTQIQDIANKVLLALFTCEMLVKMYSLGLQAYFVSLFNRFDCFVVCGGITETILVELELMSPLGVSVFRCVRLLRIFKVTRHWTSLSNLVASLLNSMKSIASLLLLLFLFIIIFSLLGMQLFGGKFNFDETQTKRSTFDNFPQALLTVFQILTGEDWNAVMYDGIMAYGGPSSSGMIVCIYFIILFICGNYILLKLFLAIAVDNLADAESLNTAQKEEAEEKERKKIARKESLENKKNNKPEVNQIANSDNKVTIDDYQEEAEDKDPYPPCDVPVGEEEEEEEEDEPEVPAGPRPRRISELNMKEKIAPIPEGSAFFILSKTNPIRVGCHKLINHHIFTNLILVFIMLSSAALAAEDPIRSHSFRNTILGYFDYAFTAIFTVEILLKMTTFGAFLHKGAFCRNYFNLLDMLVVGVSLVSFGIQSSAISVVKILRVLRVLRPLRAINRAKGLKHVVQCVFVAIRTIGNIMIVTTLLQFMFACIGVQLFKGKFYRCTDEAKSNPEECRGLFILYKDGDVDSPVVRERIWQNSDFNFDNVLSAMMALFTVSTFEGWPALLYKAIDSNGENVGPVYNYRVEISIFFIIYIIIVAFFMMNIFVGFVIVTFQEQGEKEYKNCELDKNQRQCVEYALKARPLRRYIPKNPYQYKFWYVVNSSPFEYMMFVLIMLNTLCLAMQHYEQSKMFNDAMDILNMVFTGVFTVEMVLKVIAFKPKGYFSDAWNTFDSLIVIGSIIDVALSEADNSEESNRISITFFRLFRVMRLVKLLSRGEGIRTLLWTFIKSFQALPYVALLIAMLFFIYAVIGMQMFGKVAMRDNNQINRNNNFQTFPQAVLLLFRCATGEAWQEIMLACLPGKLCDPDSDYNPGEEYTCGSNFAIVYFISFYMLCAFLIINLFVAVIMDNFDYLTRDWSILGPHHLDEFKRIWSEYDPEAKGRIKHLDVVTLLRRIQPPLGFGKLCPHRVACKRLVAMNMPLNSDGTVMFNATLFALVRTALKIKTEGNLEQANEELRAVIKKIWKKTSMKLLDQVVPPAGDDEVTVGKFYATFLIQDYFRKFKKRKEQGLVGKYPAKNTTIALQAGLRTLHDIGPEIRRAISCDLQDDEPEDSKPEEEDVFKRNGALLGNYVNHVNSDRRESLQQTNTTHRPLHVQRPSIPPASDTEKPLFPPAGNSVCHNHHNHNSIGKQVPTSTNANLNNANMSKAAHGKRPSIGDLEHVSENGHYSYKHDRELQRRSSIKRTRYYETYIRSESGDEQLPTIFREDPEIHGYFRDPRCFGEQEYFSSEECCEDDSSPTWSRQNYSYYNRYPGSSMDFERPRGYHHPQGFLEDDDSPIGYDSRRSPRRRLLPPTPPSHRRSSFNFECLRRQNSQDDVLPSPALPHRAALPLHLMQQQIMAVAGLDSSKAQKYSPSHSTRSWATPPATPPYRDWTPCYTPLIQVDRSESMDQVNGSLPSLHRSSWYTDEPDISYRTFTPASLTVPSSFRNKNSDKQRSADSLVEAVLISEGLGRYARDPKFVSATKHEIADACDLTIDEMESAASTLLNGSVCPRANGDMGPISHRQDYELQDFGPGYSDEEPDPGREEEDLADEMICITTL

[5] = target: recombinant Cav2.3 α1E (R-type) channels (α/α2δ1/β3) (Rattus norvegicus, UniProt Q07652); assay type: cell-based
[6] = target: recombinant Cav2.1 α1A (P/Q-type) channels (α/α2δ1/β3) (Oryctolagus cuniculus, UniProt P27884); assay: cell-based; design: species or system rabbit; conditions: read-out: inhibition of Cav2.1 channels

Chain of recombinant N-type (Cav2.2) VGCCs α1B-b/α2δ1/β3 (Q02294 whole entry, looked up): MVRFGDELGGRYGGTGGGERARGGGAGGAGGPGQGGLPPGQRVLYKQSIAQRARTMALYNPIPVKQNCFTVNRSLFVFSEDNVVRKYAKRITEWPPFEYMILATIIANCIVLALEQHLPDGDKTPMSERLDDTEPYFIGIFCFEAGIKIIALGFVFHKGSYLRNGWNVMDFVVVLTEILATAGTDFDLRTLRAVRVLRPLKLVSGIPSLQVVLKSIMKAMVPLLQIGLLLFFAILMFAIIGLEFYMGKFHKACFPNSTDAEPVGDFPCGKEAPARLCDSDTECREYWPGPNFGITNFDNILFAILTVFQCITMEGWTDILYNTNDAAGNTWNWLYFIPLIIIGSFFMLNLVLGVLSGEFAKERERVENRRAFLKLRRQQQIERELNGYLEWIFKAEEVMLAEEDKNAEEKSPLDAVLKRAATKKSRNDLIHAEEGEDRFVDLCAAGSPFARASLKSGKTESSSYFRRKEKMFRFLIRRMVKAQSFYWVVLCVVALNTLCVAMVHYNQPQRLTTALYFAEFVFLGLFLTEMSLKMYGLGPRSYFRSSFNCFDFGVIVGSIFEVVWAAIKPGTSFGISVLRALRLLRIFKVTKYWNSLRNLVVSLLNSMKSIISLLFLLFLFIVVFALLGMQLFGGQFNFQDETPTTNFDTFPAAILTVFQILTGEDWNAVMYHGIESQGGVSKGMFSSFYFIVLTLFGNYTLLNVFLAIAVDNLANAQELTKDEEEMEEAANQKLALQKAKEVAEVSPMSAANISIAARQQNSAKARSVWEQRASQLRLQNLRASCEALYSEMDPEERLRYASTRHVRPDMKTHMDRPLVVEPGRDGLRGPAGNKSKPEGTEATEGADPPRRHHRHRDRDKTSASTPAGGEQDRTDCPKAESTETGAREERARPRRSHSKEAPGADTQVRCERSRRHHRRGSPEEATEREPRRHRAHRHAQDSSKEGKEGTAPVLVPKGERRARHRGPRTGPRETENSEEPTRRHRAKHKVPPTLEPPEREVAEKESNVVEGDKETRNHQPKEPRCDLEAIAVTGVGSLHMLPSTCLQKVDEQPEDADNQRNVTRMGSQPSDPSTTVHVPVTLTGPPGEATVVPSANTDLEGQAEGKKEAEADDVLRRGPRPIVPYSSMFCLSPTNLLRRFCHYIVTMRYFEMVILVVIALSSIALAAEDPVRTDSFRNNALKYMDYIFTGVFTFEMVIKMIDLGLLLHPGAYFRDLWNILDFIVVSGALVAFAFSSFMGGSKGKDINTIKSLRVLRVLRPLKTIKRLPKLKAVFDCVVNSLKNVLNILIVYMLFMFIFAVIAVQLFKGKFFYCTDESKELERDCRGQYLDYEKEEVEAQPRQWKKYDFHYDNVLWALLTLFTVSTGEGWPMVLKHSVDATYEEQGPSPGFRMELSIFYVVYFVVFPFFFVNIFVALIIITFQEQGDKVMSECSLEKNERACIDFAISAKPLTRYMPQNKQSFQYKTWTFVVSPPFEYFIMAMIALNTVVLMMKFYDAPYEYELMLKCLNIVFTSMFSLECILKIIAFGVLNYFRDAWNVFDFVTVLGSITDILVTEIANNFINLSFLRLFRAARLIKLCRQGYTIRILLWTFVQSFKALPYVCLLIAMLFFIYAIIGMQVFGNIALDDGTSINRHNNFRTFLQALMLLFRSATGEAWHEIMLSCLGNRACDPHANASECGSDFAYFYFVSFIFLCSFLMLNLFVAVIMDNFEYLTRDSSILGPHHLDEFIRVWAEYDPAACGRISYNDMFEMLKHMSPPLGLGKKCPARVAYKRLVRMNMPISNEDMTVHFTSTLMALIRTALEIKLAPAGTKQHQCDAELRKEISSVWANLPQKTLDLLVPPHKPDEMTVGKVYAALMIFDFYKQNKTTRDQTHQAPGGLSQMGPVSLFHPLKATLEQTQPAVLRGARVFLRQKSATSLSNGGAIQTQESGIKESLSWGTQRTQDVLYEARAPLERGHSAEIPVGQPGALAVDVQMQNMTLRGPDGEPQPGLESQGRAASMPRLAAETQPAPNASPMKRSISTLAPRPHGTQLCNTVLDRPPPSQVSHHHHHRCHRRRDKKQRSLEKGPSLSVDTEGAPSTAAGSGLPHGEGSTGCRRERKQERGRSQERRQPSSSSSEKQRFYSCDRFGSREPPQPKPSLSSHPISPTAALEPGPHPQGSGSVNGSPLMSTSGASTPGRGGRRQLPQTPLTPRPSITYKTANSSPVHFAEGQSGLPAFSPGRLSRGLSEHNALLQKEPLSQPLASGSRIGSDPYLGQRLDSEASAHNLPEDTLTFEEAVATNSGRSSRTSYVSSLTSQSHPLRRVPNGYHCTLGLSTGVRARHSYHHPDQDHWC

SMILES	Hill slope [1]	IC50 [1]	IC50 [2]	inhibition of depolarization-activated Ba2+ currents (IBa) [1]	time constant of block (τon) [1]	effect on Cav1.2 channels [3]	effect on Cav1.3 channels [4]	effect on Cav2.3 channels [5]	inhibition at 3 µM [6]
CSCC[C@@H]1NC(=O)[C@H]([C@@H](C)O)NC(=O)[C@H](CCCCN)NC(=O)[C@H](CCCNC(=N)N)NC(=O)[C@@H]2CSSC[C@@H]3NC(=O)[C@H](CO)NC(=O)CNC(=O)[C@H](CCCNC(=N)N)NC(=O)[C@H](CSSC[C@H](N)C(=O)N[C@@H](CCCCN)C(=O)NCC(=O)N[C@@H](CCCCN)C(=O)NCC(=O)N[C@@H](C)C(=O)N[C@@H](CO)C(=O)N2)NC(=O)[C@H](CSSC[C@@H](C(N)=O)NC(=O)[C@H](CCCNC(=N)N)NC(=O)CNC(=O)[C@H](CO)NC(=O)[C@H](CCCNC(=N)N)NC3=O)NC(=O)[C@H](CC(=O)O)NC(=O)[C@H](Cc2ccc(O)cc2)NC1=O [CVIB, reference compound] (HELM PEPTIDE1{C.K.G.K.G.A.S.C.R.K.T.M.Y.D.C.C.R.G.S.C.R.S.G.R.C.[am]}$PEPTIDE1,PEPTIDE1,1:R3-16:R3|PEPTIDE1,PEPTIDE1,8:R3-20:R3|PEPTIDE1,PEPTIDE1,15:R3-25:R3$$$V2.0)	0.47±0.03	12 ± 2.3 nM	1.6 ± 0.6 nM	–	–	–	–	–	–
C[C@@H]1NC(=O)CNC(=O)[C@H](CCCCN)NC(=O)CNC(=O)[C@H](CCCCN)NC(=O)[C@@H](N)CSSC[C@@H]2NC(=O)[C@@H]3CSSC[C@@H](C(N)=O)NC(=O)[C@H](CCCNC(=N)N)NC(=O)CNC(=O)[C@H](CO)NC(=O)[C@H](CCCNC(=N)N)NC(=O)[C@H](CSSC[C@H](NC(=O)[C@H](CO)NC1=O)C(=O)N[C@@H](CCCNC(=N)N)C(=O)N[C@@H](CCCNC(=N)N)C(=O)N[C@@H]([C@@H](C)O)C(=O)N[C@@H](CO)C(=O)N[C@@H](Cc1ccc(O)cc1)C(=O)N[C@@H](CC(=O)O)C(=O)N3)NC(=O)[C@H](CO)NC(=O)CNC(=O)[C@H]([C@@H](C)O)NC2=O [CVIE, CKGKGASCRRTSYDCCTGSCRSGRC]	0.45±0.03	2.6 ± 0.5 nM	0.12 ± 0.05 nM	potently inhibited	31.5 ± 2.4 s and 38.5 ± 2.8 s	neither peptide had any effect	neither peptide had any effect	neither peptide had any effect	< 10%
CC(C)C[C@@H]1NC(=O)[C@H](CCCNC(=N)N)NC(=O)[C@@H]2CSSC[C@@H]3NC(=O)[C@H](CO)NC(=O)[C@H](C)NC(=O)CNC(=O)[C@H](CCCCN)NC(=O)CNC(=O)[C@H](CCCCN)NC(=O)[C@@H](N)CSSC[C@H](NC(=O)[C@H](CSSC[C@@H](C(N)=O)NC(=O)[C@H](CCCNC(=N)N)NC(=O)CNC1=O)NC(=O)[C@H](CC(=O)O)NC(=O)[C@H](Cc1ccc(O)cc1)NC(=O)[C@H](CO)NC(=O)[C@H]([C@@H](C)O)NC(=O)[C@H](CCCNC(=N)N)NC(=O)[C@H](CCCNC(=N)N)NC3=O)C(=O)N[C@@H]([C@@H](C)O)C(=O)NCC(=O)N[C@@H](CO)C(=O)N2 [CVIF] (HELM PEPTIDE1{C.K.G.K.G.A.S.C.R.R.T.S.Y.D.C.C.T.G.S.C.R.L.G.R.C.[am]}$PEPTIDE1,PEPTIDE1,1:R3-16:R3|PEPTIDE1,PEPTIDE1,8:R3-20:R3|PEPTIDE1,PEPTIDE1,15:R3-25:R3$$$V2.0)	0.51±0.04	–	0.1 ± 0.07 nM	potently inhibited	–	neither peptide had any effect	neither peptide had any effect	neither peptide had any effect	< 10%
